Assay results as given in the NIST ThermoML archive (doi:10.1021/je9010486).
± gives the expanded uncertainty stated by the source.

Assay: cn = amount concentration of the nth substance listed, in mol/dm3
Conditions: 101 kPa, Liquid

OC[C@@H](O)[C@@H](O)CO [meso-1,2,3,4-butanetetrol] + O
Conditions	mass density, 293.15 K [kg/m3]	mass density, 303.15 K [kg/m3]	mass density, 313.15 K [kg/m3]	mass density, 323.15 K [kg/m3]	viscosity, 293.15 K [mPa·s]	viscosity, 303.15 K [mPa·s]	viscosity, 313.15 K [mPa·s]	viscosity, 323.15 K [mPa·s]
c1 = 0.1	1002.06 ± 1.3	999.34 ± 1.3	995.83 ± 1.4	991.64 ± 1.4	1.047 ± 0.026	0.8541 ± 0.022	0.6807 ± 0.018	0.5663 ± 0.015
c1 = 0.2	1005.36 ± 1.4	1002.74 ± 1.3	999.19 ± 1.3	994.96 ± 1.4	1.065 ± 0.026	0.8706 ± 0.022	0.7005 ± 0.018	0.5849 ± 0.016
c1 = 0.3	1009.37 ± 1.4	1006.74 ± 1.4	1003.09 ± 1.3	998.81 ± 1.3	1.088 ± 0.027	0.8913 ± 0.022	0.721 ± 0.019	0.5986 ± 0.016
c1 = 0.4	1012.65 ± 1.5	1009.58 ± 1.4	1006.3 ± 1.4	1001.94 ± 1.3	1.11 ± 0.027	0.911 ± 0.023	0.743 ± 0.019	0.6171 ± 0.016
c1 = 0.5	1016.16 ± 1.6	1013.33 ± 1.5	1009.63 ± 1.4	1005.23 ± 1.4	1.139 ± 0.028	0.9366 ± 0.023	0.7611 ± 0.02	0.6351 ± 0.017
c1 = 0.6	1019.38 ± 1.6	1016.67 ± 1.6	1012.43 ± 1.5	1008.41 ± 1.4	1.169 ± 0.028	0.9634 ± 0.024	0.7827 ± 0.02	0.652 ± 0.017
c1 = 0.7	1023.78 ± 1.7	1020.8 ± 1.6	1015.82 ± 1.6	1012.27 ± 1.5	1.213 ± 0.029	1.002 ± 0.025	0.8067 ± 0.021	0.6734 ± 0.018
c1 = 0.8	1026.82 ± 1.7	1024.2 ± 1.7	1019.15 ± 1.6	1015.63 ± 1.6	1.257 ± 0.03	1.045 ± 0.026	0.8339 ± 0.021	0.6909 ± 0.018
c1 = 0.9	1031.9 ± 1.8	1027.8 ± 1.8	1023.23 ± 1.7	1019.38 ± 1.6	1.306 ± 0.031	1.087 ± 0.027	0.861 ± 0.022	0.7057 ± 0.018
c1 = 1	1034.32 ± 1.9	1031.18 ± 1.8	1027.24 ± 1.8	1022.64 ± 1.7	1.338 ± 0.032	1.137 ± 0.028	0.8965 ± 0.023	0.7251 ± 0.019

OC[C@@H](O)[C@@H](O)[C@H](O)[C@@H](O)CO [D-sorbitol] + O
Conditions	mass density, 293.15 K [kg/m3]	mass density, 303.15 K [kg/m3]	mass density, 313.15 K [kg/m3]	mass density, 323.15 K [kg/m3]	viscosity, 293.15 K [mPa·s]	viscosity, 303.15 K [mPa·s]	viscosity, 313.15 K [mPa·s]	viscosity, 323.15 K [mPa·s]
c1 = 0.1	1004.76 ± 1.4	1002.12 ± 1.3	998.58 ± 1.3	994.32 ± 1.4	1.088 ± 0.027	0.8619 ± 0.022	0.6892 ± 0.018	0.5711 ± 0.015
c1 = 0.2	1011.23 ± 1.5	1008.52 ± 1.4	1004.89 ± 1.4	1000.54 ± 1.3	1.113 ± 0.027	0.8842 ± 0.022	0.7109 ± 0.018	0.5983 ± 0.016
c1 = 0.3	1017.64 ± 1.6	1014.83 ± 1.5	1011.14 ± 1.5	1006.75 ± 1.4	1.168 ± 0.028	0.9329 ± 0.023	0.7399 ± 0.019	0.6199 ± 0.017
c1 = 0.4	1024.07 ± 1.7	1021.15 ± 1.6	1017.37 ± 1.6	1012.93 ± 1.5	1.22 ± 0.029	0.9794 ± 0.024	0.7849 ± 0.02	0.6596 ± 0.017
c1 = 0.5	1029.89 ± 1.8	1026.88 ± 1.7	1023.01 ± 1.7	1018.5 ± 1.6	1.275 ± 0.031	1.029 ± 0.025	0.8127 ± 0.021	0.6841 ± 0.018
c1 = 0.6	1036.94 ± 1.9	1033.82 ± 1.9	1029.9 ± 1.8	1025.33 ± 1.7	1.33 ± 0.032	1.079 ± 0.026	0.8573 ± 0.022	0.7037 ± 0.018
c1 = 0.7	1043.32 ± 2	1040.11 ± 2	1036.08 ± 1.9	1031.44 ± 1.8	1.394 ± 0.033	1.136 ± 0.028	0.8885 ± 0.022	0.7392 ± 0.019
c1 = 0.8	1049.36 ± 2.1	1046.04 ± 2.1	1041.95 ± 2	1037.25 ± 1.9	1.466 ± 0.035	1.202 ± 0.029	0.931 ± 0.023	0.7779 ± 0.02
c1 = 0.9	1056.16 ± 2.2	1052.72 ± 2.2	1048.48 ± 2.1	1043.79 ± 2	1.531 ± 0.036	1.26 ± 0.03	0.9849 ± 0.024	0.8178 ± 0.021
c1 = 1	1062.52 ± 2.3	1058.99 ± 2.3	1054.72 ± 2.2	1049.92 ± 2.1	1.608 ± 0.038	1.329 ± 0.032	1.03 ± 0.025	0.8541 ± 0.022
